In US12582720B2, “Compound for preventing or treating lipid metabolism-related diseases” (Fudan University, priority 2020, dated 2026):

What was measured:
[1] = system: lipid droplets in human normal liver cell line QSG7701; assay: Endogenous lipid droplets in human normal liver cell line QSG7701; format: cell-based; conditions: QSG7701, no induction, 5 μM, 24 h
Method: 10% FBS+90% RPMI 1640 culture medium was used for cultivation, cell incubator culture condition of 37° C. and 5% CO2 was used. Cells were plated as 50 thousands/well (12 well plate was plated with aseptic treated slides). When cells grew to a confluence of 80-90%, the compound (Compound 1A or Compound 2A, at a concentration of 5 μM) was added for treatment, and LC3 binding Compound A1, A5, lipid droplet probe Sudan IV as well as DMSO acted as a control. […]. In the compounds of present disclosure, LC3 binding moiety was covalently linked with lipid droplet binding moiety, and thus could achieve the effect of reducing liver cell endogenous lipid droplet.

db/db mice = assay: Effect of the compound on db/db mouse; format: in vivo; conditions: 30 mg/kg ip, 8 mice per group
Excerpt: Experimental animals: nineteen-week-old db/db male mice (C57BL/6J-Lepr^db/Lepr^db) were obtained from Shanghai Model Organisms Co., Ltd., and acclimatized for at least 1 week before experiments. The mice had ad libitum access to standard chow and water.
Normal control: The C57BL/6 male mice fed on standard irradiated chow diet (Shuyishuer Inc. cat. no. D12450J) from Changzhou Shuyishuer Biotechnology Co., Ltd. (Shuyishuer Inc.) were used as the normal control.
Mice were randomly divided into 7 groups, wherein 8 mice in each group, and the mice in each group were subjected to intraperitoneal injection to administer: (1) only vehicle (no DMSO) group: 0% DMSO+39% PEG300 (Selleck, cat. no. S6704)+5% Tween-80 (Selleck, cat. no. S6702)+56% distilled water, (2) DMSO group: 1% DMSO+39% PEG300+5% Tween-80+55% H2O (DMSO vehicle), (3) C3 group: Compound 3A was in DMSO vehicle, (4) C4 group: Compound 4A in DMSO vehicle, (5) SIII group: Sudan III DMSO vehicle, (6) GW5074 group: Compound A1 in DMSO vehicle, (7) DP group: Compound A5 in DMSO vehicle. For groups (3)-(7), the compound (30 mg/kg, administration volume 150 μL) was administered through intraperitoneally injection for consecutive 2 weeks, and once a day. The food and water intake were measured with an analytical electronic balance.
Bodyweight was weighed every day.
If time permitted, tail vein blood (30-50 μL) was collected every 1-3 days.
24 hours after the time point of the last injection, end point maxillary surface blood sampling was performed on each mouse. All mice were Euthanized by cervical dislocation, and then tissue sample (e.g., liver samples) were obtained and stored in Eppendorf tubes at −80° C. for assay.
12 days after initiation of administration, each mouse was scanned by a minispec nuclear magnetic resonance (NMR) instrument (Bruker LF50 II “Minispec” body composition analyzer, Bruker Optics) that was designed for experimental animals, and based on the measurement of solid and liquid parts of the samples, the body fat and lean body weight were determined by this device.
Serum: Tail vein blood samples (30-50 μL) were left to coagulate in […] blood collection tubes (Jiangsu Kangjian Medical Products Co., Ltd., model KJ002) at room temperature without interference, and then centrifuged at 2,000×g for 10 minutes at 4° C. to remove the clot. Supernatant was collected to obtain the serum.
Liver: Liver samples were obtained as described in (2). 100 mg of liver tissue was homogenized in 0.9 mL of absolute alcohol under ice-cold conditions, and then centrifuged (2,500 r.p.m/min, 10 min). Supernatant was collected, and then stored at −80° C.
The kits were used according to the instruction from manufacturer (TAG: TG kit, cat. no. A110-1-1; TC: T-CHO kit, cat. no. A111-1. FFA: NEFA kit, cat. No. A042-2-1; they were all from Nanjing Jiancheng Bioengineering Institute). TAG, TC and FFA levels in serum and liver samples were determined.
According to the lipidomic method as described above, the contents of liver total lipid, glycerolipid, sterol lipid, neutral sphingolipid and polar lipid were analyzed. The log 2-fold change (log2 FC) and statistical significance (p-value) relative to the DMSO group were calculated.

LC3B = LC3B (Homo sapiens, UniProt Q9GZQ8); assay: MST detection of affinity activity with LC3B; format: binding; parameters: His8 (with TEV site) (N); made in house; host or cells: Escherichia coli BL21(DE3)pLysS; conditions: MST; read-out: Kd, equilibrium dissociation constant between the LC3 binding compound and LC3B
Summary of the method: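 Microscale thermophoresis uses recombinant GST-LC3B labelled with RED-NHS fluorophore at 500 nM. Buffer is 20 mM HEPES pH 7.4 with 150 mM NaCl. Readings are taken at 40% infrared laser power and 20% LED power.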

## O=C1Nc2ccc(I)cc2C1=Cc1cc(Br)c(O)c(Br)c1 [Compound A1, 3-(3,5-dibromo-4-hydroxylbenzylidene)-5-iodoindolin-2-one, reference compound]
[1]
  endogenous lipid droplets (amount): no significant effect
db/db mice
  mice died in the experiment: One mouse
LC3B
  Kd: 4.76 µM
